Data reported in patent US20090233917A1, “Stroke recovery” (priority 2006, published 2009).
“Also recorded” adds a separate entry of the source.

Tested on: permanent middle cerebral artery occlusion (MCAO) in rats
Experiment: Functional recovery following permanent MCAO in rats (Example 1)
Type: in vivo, Sprague Dawley Rats
From the text: The purpose of this study was to evaluate the efficacy of arimoclomol and iroxanadine in enhancing neurological recovery in a model of permanent middle cerebral artery occlusion (MCAO) in rats. The permanent MCAO is a well accepted and considered to be a standard animal model for studying clinical aspects of stroke. (Stroke. 1999; 30:2752-2758.)
Forty male Sprague Dawley Rats, each weighing 300-400 g, which had been housed and handled for behavioral assessment for seven (7) days prior to surgery for acclimation purposes, were operated under anesthesia to create focal cerebral infarcts by permanent occlusion of the proximal right middle cerebral artery (MCA) according to modified Tamura model. Briefly, the rats were anesthetized with 2-3% halothane in the mixture of N2O:O2 (2:1), and were maintained with 1˜1.5% halothane in the mixture of N2O:O2 (2:1). The temporalis muscle was bisected and reflected through an incision made midway between the eye and the eardrum canal. The proximal MCA was exposed through a subtemporal craniectomy without removing the zygomatic arch and without transecting the facial nerve. […] Body temperature was maintained at 37.5° C.±0.5° C. throughout the entire procedure. Cefazolin (40 mg/kg; Baxter, Lot 06014.1, Exp. January 2009) was given i.p. one day before MCAO and just after MCAO to prevent infections.
The rats were randomly divided into 4 groups of 10 animals each. One group was given arimoclomol, p.o., starting at one hour after the occlusion at 200 mg/kg/d once daily for 3 days, then 50 mg/kg/d once daily for a total of 29 days. The second group was given iroxanadine using the same dosing regimen as for arimoclomol. The third group is a positive control group and is given intracistemally 1 μg (at 20 μg/ml, also containing 100 μg/ml of bovine serum albumin) beta-fibroblast growth factor (bFGF) one hour and one day (i.e. two administrations) after the occlusion. The fourth group is a negative control with administration of the vehicle only.
Animals were evaluated preoperation (day −1), then every 7 days after the operation (7, 14, 21, and 28 days) by forelimb and hindlimb placing tests and body swing test, which are widely accepted as standard tests indicative of functional recovery after a stroke model.
For the forelimb placing test, the examiner held the rat close to a tabletop and scored the rat's ability to place the forelimb on the tabletop in response to whisker, visual, tactile, or proprioceptive stimulation. Similarly, for the hindlimb placing test, the examiner assessed the rat's ability to place the hindlimb on the tabletop in response to tactile and proprioceptive stimulation. Separate sub-scores were obtained for each mode of sensory input (halfpoint designations possible), and added to give total scores (for the forelimb placing test: 0=normal, 12=maximally impaired; for the hindlimb placing test: 0=normal; 6=maximally impaired).
For the body swing test, the rat was held approximately one inch from the base of its tail. It was then elevated to an inch above a surface of a table. The rat was held in the vertical axis, defined as no more than […] to either the left or the right side. A swing was recorded whenever the rat moved its head out of the vertical axis to either side. The rat must return to the vertical position for the next swing to be counted. Thirty (30) total swings were counted. A normal rat typically has an equal number of swings to either side. Following focal ischemia, the rat tends to swing to the contralateral (left) side.
The behavior was evaluated by giving the score ranging in the parentheses after each test: • Forelimb placing test (0-12), consisting of whisker tactile placing (0-2); visual placing (forward, sideways) (0-4); tactile placing (dorsal, lateral) (0-4); and proprioceptive placing (0-2); • Hindlimb placing test (0-6), consisting of tactile placing (dorsal, lateral) (0-4); and proprioceptive placing (0-2). […]

[1] = treatment from 1 h after occlusion, up to 28 days

In the case of `[O-][n+]1cccc(/C(Cl)=N/OC[C@H](O)CN2CCCCC2)c1` [arimoclomol, N-[2-hydroxy-3-(1-piperidinyl)propoxy]-pyridine-1-oxide-3-carboximidoyl chloride], the “Infarct Volume (%)” value (day 28 after permanent MCAO, percentage of intact contralateral hemispheric volume, mean ± S.E.M.) is reported as 21.6 ± 3.6%, the “Body Swing Test, recovery compared to vehicle group” value [1] is reported as “superior to the vehicle group; also recorded: non-significant trend of enhanced recovery” and the “Forelimb Placing Test, recovery compared to vehicle group” value [1] is reported as “superior to the vehicle group”. The “Hindlimb Placing Test, recovery compared to vehicle group” value [1] was “superior to the vehicle group”.
